From publication PMC10303687 (Protein Science : A Publication of the Protein Society, 2023)
Entries after “also recorded” stand apart in the source; their conditions may differ. Ends that are not written are not given here.

How the values were obtained:
[1] = target: T1, MDM2 D. rerio (SWIB domain) (Danio rerio, UniProt O42354); assay: Stopped-flow binding kinetics (kon, koff; KD = koff/kon); conditions: for kon: MDM2 D. rerio 0.5–2 μM mixed with 1–10 μM peptide, curve fitting error; for kon / koff: pH 7.4; for koff: complex 1 μM:1 μM displaced by 10–20 μM dansylated human p53TAD, SD of two or three replicates
T1 construct: N-terminal fusion: NusA-TEV-His6-PreScission (pSY10) or His6-GST-PreScission (pETM33); made in house; host or cells: Escherichia coli BL21 (DE3) pLys or BL21 (DE3)

[2] = target: T1, MDM2 D. rerio (SWIB domain); assay: Fluorescence polarization displacement of FITC-labeled human p53TAD 15–26 (IC50 to KD/Ki); format: binding; conditions: FP displacement; low constant FITC-labeled p53TADHuman and MDM2 D. rerio, displaced by excess peptide; room temperature, pH 7.4; KD calculated from IC50; mean ± SEM
Procedure: FP can detect weak affinities (K D values in the high μM range), although the accuracy is lower than for the other methods. In FP experiments we observed direct binding using a FITC‐labeled p53TAD peptide and used unlabeled peptides containing the binding motif to displace the labeled one. FP experiments were performed at room temperature using the same buffer as kinetic experiments. […] The polarization was measured at excitation/emission wavelengths of 485/535 nm on a SpectraMax iD5 plate reader. […] Errors were calculated as standard error of mean (SEM) of calculated K D values for the displacer peptides resulting from independent fit of IC50 values for the replicate measurements. […]
Supplementary Excel File 2. […] IC50 values were determined as described in the materials section. The theory behind the conversion of IC50 values to Ki values (=KD) is described in Nikolovska-Coleska, et al., Development and optimization of a binding assay for the XIAP BIR3 domain using fluorescence polarization. […]

[3] = target: T2, MDM2 H. sapiens (SWIB domain) (Homo sapiens, UniProt Q00987); assay: Stopped-flow binding kinetics (kon, koff; KD = koff/kon); conditions: 10°C; for koff: pre-formed complex 1 μM:1 μM displaced by 10–20 μM dansylated human p53TAD, pH 7.4, SD of two or three replicates; for kon: pH 7.4, MDM2 H. sapiens 0.5–2 μM mixed with 1–10 μM p53TAD, kobs vs concentration, pH 7.4, curve fitting error
T2 construct: The reconstructed MDM2 variants used in the present study correspond to residues 17–125 of human MDM2; N-terminal fusion: NusA-TEV-His6-PreScission (pSY10) or His6-GST-PreScission (pETM33); made in house; host or cells: Escherichia coli BL21 (DE3) pLys or BL21 (DE3)

[4] = target: MDM2 T. adhaerens (SWIB domain); assay: Fluorescence polarization displacement of FITC-labeled human p53TAD 15–26 (IC50 to KD/Ki); format: binding, Trichoplax adhaerens; conditions: FP displacement, FITC-labeled p53TAD H. sapiens 15–26 6 or 10 nM and MDM2 T. adhaerens 50 μM constant, dilution series of native p53TAD, room temperature, pH 7.4
Procedure: FP can detect weak affinities (K D values in the high μM range), although the accuracy is lower than for the other methods. In FP experiments we observed direct binding using a FITC‐labeled p53TAD peptide and used unlabeled peptides containing the binding motif to displace the labeled one. FP experiments were performed at room temperature using the same buffer as kinetic experiments. For saturation experiments the FITC labeled human peptide was held at a constant concentration of 6 or 10 nM and mixed with the 1:1 dilution series of different MDM2 proteins (the highest concentration of proteins were 89, 37, 50, 22, and 7.3 μM for T. adhaerens, M. trossulus, I. scapularis, L. camtschaticum and H. sapiens MDM2, respectively) in black, non‐binding surface, flat bottom 96‐well plates (Corning Life Sciences). The polarization was measured at excitation/emission wavelengths of 485/535 nm on a SpectraMax iD5 plate reader. […] The resulting displacement curve was fit to a sigmoidal dose‐response (variable slope) equation to obtain an IC50 value, which was in turn used to calculate K D values for the competing peptides as described previously(Nikolovska‐Coleska et al., [2004]) (Excel File 2 in Data S1). Errors were calculated as standard error of mean (SEM) of calculated K D values for the displacer peptides resulting from independent fit of IC50 values for the replicate measurements.
Supplementary Excel File 1. Sequences of constructs used in the experiments. The sequence and name for each interaction motif in p53TAD and MDM2 SWIB domain used in binding experiments in the study.
Supplementary Excel File 2. Calculation of Ki from IC50 values. IC50 values were determined as described in the materials section. The theory behind the conversion of IC50 values to Ki values (=KD) is described in Nikolovska-Coleska, et al., Development and optimization of a binding assay for the XIAP BIR3 domain using fluorescence polarization. […]
p53TAD. The posterior probability is shown for each amino acid for each position for the […]
Supplementary Text File 1. Fasta file for p53TAD. […]

T2 sequence (Q00987 17-125): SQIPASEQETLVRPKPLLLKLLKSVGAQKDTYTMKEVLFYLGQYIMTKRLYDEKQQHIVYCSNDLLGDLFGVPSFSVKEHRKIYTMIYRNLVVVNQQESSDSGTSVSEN
T1 sequence (O42354 19-102 limits assumed): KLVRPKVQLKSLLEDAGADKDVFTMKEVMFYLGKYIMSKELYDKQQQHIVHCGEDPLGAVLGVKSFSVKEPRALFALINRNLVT

| Substance | koff ([3]; MDM2 H. sapiens) [s⁻¹] | kon [3] [M⁻¹ s⁻¹] | also measured |
| --- | --- | --- | --- |
| Ac-DSQEFAELWEKN (N-terminus assumed) [p53TAD D. rerio ^14–26] |  |  | K D ([1]; MDM2 D. rerio, KD = koff/kon, stopped-flow, 10°C, 20 mM sodium phosphate pH 7.4, 150 mM NaCl, 1 mM TCEP, propagated error): absence of interaction; also recorded: non‐measurable affinity |
| Ac-EGPTFEHLWSTL [p73TAD D. rerio] |  |  | Kd [1]: 0.12 ± 0.01 µM; kon ([1]; stopped-flow, 10°C): 3.2e+07 ± 1e+06 M⁻¹ s⁻¹; koff ([1]; MDM2 D. rerio, 10°C): 3.7 ± 0.06 s⁻¹ |
| Ac-GQDVLNQLLEML [p63TAD D. rerio] |  |  | Kd [2]: 130 ± 2 µM |
| Ac-SQDTFSDLWNQL [p53TAD1R ^AltAll] | 0.7 ± 0.04 | 2.9e+07 ± 2e+06 |  |
| Ac-SQESFSDLWNLL [p53TADFishes/Tetrapods ^AltAll] | 0.52 ± 0.04 | 2.73e+07 ± 700000 |  |
| Ac-SQETFDFLWKSL [p53TADBilateria ^AltAll] | 2.6 ± 0.3 | 1.5e+07 ± 1e+06 |  |
| Ac-SQETFEYLWNTL [p53TAD M. trossulus] |  |  | K D ([3]; MDM2 H. sapiens, KD = koff/kon, Trp fluorescence ex 280 nm/em 330 ± 25 nm, 20 mM sodium phosphate pH 7.4, 150 mM NaCl, 1 mM TCEP, propagated error, 12-mers show non-native high affinity): high affinity |
| Ac-SQETFNHLWNML [p53TAD1R ^ML] | 1.37 ± 0.06 | 1.67e+07 ± 900000 |  |
| Ac-SQETFNHLWNTL [p53TADBilateria ^ML] | 11 ± 2 | 1.9e+07 ± 1e+06 |  |
| Ac-SQETFSDLWNLL [p53TADReptiles/Mammals ^ML] | 0.32 ± 0.04 | 4.2e+07 ± 2e+06 |  |
| Ac-SQETFSDLWNML [p53TADFishes/Tetrapods ^ML] |  |  | kon ([1]; stopped-flow, 10°C): 2.46e+07 ± 800000 M⁻¹ s⁻¹; koff ([1]; MDM2 D. rerio, 10°C): 2.3 ± 0.2 s⁻¹ |
| Ac-SQETFSDLWNML [p53TADReptiles/Mammals ^AltAll] | 0.36 ± 0.01 | 3.8e+07 ± 2e+06 |  |
| GPMGMSDEPTLSQLSFSQELSSSWQLMIDEITQGKFNTNEDEGTAIYSYSEQNPDDRYLMRPNEPQYISAGYPDGQVGQLPREFAVNQIPSPRTFSDNVSSSADKAREAYYGQAVNGVSAETSPPLKRDP [full-length p53TAD, residues 1–126 of T. adhaerens p53] |  |  | K D [4]: did not show binding; K D ([4]; listed as full‐length p53TAD): failed to displace; K D ([4]; listed as full‐length p53TAD from T. adhaerens): no binding |
